Values quoted from earlier work as cited in patent US20030157192A1, “Low temperature disinfectant/sterilant for medical devices and topical applications” (Healthpoint, Ltd., priority 2002, published 2003).

How the values were obtained:
[1] = room temperature; low pH
[2] = test system: mouse skin; details: tested on mouse skin

## OO [6% hydrogen peroxide, hydrogen peroxide]
[1]
  minimum time required to pass the AOAC Sporicidal Test: ≥ 6 h

## CC(=O)OO [Peracetic acid]
[2]
  tumor promotion: tumor-promoting agent
